Test results taken from ChEMBL document CHEMBL4321809, “Structure-Reactivity Relationships on Substrates and Inhibitors of the Lysine Deacylase Sirtuin 2 from Schistosoma mansoni (SmSirt2)” (J Med Chem, 2019).
One block for each molecule: values may come before it. Activity calls are given as the source filed them. No cut-off for these calls is given here.

Experiments:
[1] = biological target: T1, NAD-dependent protein deacetylase (Schistosoma mansoni, UniProt T1VXA1); assay: Substrate activity at recombinant Schistosoma mansoni sirtuin 2 (21 to 322 residues) expressed in Escherichia coli BL21(DE3) cells assessed as ratio of Kcat to Km up to 30 mins in presence of ZMAL at saturated concentration by homogeneous fluorescence based analysis; format: ADME; settings: 0.5 h
T1 sequence (T1VXA1 whole entry): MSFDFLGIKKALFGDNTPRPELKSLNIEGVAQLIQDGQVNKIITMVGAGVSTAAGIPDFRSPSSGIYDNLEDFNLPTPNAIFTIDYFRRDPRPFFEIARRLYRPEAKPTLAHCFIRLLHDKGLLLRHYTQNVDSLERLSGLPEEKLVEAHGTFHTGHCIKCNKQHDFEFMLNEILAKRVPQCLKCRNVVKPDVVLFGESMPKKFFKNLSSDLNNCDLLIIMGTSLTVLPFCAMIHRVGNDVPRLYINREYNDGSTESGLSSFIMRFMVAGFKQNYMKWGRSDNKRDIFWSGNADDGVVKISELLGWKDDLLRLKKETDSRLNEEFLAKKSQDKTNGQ

[2] = biological target: T1, NAD-dependent protein deacetylase; assay: Ratio of Kcat for recombinant Schistosoma mansoni sirtuin 2 (21 to 322 residues) expressed in Escherichia coli BL21(DE3) cells in presence of PSDKmyr to Kcat for recombinant Schistosoma mansoni sirtuin 2 (21 to 322 residues) expressed in Escherichia coli BL21(DE3) cells in presence of PSDKac; format: ADME
[3] = biological target: T1, NAD-dependent protein deacetylase; assay: Inhibition of recombinant Schistosoma mansoni sirtuin 2 (21 to 322 residues) expressed in Escherichia coli BL21(DE3) cells assessed as inhibition of substrate deacetylation using ZMAL as substrate
[4] = biological target: T1, NAD-dependent protein deacetylase; assay: Inhibition of recombinant Schistosoma mansoni sirtuin 2 (21 to 322 residues) expressed in Escherichia coli BL21(DE3) cells assessed as inhibition of substrate demyristoylation using (Z)-(Myr)-Lys-AMC as substrate
[5] = biological target: T2, NAD-dependent protein deacetylase sirtuin-2 (Homo sapiens, UniProt Q8IXJ6); assay: Inhibition of human sirutin 2 assessed as inhibition of susbtrate demyristoylation at 20 uM using (Z)-(Myr)-Lys-AMC as substrate relative to control
T2 sequence (Q8IXJ6 whole entry): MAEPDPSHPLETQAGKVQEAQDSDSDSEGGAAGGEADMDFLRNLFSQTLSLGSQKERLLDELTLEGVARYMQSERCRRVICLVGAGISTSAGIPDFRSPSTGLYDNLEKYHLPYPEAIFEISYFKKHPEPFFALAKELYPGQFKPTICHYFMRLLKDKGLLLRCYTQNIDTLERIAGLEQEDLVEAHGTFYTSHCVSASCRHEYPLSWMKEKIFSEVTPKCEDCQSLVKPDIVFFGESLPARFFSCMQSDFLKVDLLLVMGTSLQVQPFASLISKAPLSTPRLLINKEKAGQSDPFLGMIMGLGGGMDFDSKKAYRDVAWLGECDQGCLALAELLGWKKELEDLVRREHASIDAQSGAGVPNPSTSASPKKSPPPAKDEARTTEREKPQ

[6] = biological target: T3, NAD-dependent protein deacetylase sirtuin-1 (Homo sapiens, UniProt Q96EB6); assay: Inhibition of human sirtuin 1 at 500 uM relative to control
T3 sequence (Q96EB6 whole entry): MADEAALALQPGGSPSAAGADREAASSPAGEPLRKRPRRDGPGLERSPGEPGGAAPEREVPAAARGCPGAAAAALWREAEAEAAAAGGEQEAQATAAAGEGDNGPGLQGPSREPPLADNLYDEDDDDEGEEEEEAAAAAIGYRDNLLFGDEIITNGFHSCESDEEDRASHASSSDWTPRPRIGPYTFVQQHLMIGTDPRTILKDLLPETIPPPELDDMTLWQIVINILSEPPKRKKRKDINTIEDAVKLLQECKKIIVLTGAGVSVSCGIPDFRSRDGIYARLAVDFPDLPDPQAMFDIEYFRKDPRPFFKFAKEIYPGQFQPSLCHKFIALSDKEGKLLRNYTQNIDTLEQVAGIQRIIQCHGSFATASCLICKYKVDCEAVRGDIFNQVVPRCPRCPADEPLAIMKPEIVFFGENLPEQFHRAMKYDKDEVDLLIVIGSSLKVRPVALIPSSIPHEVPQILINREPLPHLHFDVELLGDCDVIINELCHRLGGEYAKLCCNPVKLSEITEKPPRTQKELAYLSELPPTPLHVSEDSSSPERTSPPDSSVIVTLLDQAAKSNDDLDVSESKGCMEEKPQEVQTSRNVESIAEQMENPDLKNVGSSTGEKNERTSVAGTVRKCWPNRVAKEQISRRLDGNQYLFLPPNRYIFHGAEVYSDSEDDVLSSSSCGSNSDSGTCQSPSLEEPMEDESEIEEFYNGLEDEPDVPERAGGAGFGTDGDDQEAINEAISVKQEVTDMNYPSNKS

[7] = biological target: T4, NAD-dependent protein deacetylase (Schistosoma mansoni) (UniProt T1VXA1); assay: Inhibition of recombinant Schistosoma mansoni sirtuin 2 (21 to 322 residues) expressed in Escherichia coli BL21(DE3) cells in presence of ZMAL
T4 sequence (whole entry): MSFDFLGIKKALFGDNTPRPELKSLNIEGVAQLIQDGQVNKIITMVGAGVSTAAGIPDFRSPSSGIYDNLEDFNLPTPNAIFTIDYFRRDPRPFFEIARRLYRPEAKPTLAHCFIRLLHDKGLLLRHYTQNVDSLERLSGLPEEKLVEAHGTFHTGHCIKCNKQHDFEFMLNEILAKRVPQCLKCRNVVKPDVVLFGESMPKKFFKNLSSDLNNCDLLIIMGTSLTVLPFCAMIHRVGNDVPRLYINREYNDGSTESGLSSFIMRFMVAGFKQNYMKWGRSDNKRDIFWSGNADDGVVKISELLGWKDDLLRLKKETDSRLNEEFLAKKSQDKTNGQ

[8] = biological target: T4, NAD-dependent protein deacetylase (Schistosoma mansoni); assay: Inhibition of recombinant Schistosoma mansoni sirtuin 2 (21 to 322 residues) expressed in Escherichia coli BL21(DE3) cells in presence of (Z)-(But)Lys-AMC
[9] = biological target: T4, NAD-dependent protein deacetylase (Schistosoma mansoni); assay: Inhibition of recombinant Schistosoma mansoni sirtuin 2 (21 to 322 residues) expressed in Escherichia coli BL21(DE3) cells in presence of (Z)-(Hex)Lys-AMC
[10] = biological target: T4, NAD-dependent protein deacetylase (Schistosoma mansoni); assay: Inhibition of recombinant Schistosoma mansoni sirtuin 2 (21 to 322 residues) expressed in Escherichia coli BL21(DE3) cells in presence of (Z)-(Oct)Lys-AMC
[11] = biological target: T4, NAD-dependent protein deacetylase (Schistosoma mansoni); assay: Inhibition of recombinant Schistosoma mansoni sirtuin 2 (21 to 322 residues) expressed in Escherichia coli BL21(DE3) cells in presence of (Z)-(Dec)Lys-AMC
[12] = biological target: T4, NAD-dependent protein deacetylase (Schistosoma mansoni); assay: Inhibition of recombinant Schistosoma mansoni sirtuin 2 (21 to 322 residues) expressed in Escherichia coli BL21(DE3) cells in presence of (Z)-(Lau)Lys-AMC
[13] = biological target: T4, NAD-dependent protein deacetylase (Schistosoma mansoni); assay: Inhibition of recombinant Schistosoma mansoni sirtuin 2 (21 to 322 residues) expressed in Escherichia coli BL21(DE3) cells in presence of (Z)-(Myr)Lys-AMC
[14] = biological target: T4, NAD-dependent protein deacetylase (Schistosoma mansoni); assay: Inhibition of recombinant Schistosoma mansoni sirtuin 2 (21 to 322 residues) expressed in Escherichia coli BL21(DE3) cells in presence of (Z)-(Pal)Lys-AMC
[15] = substrate: CCCCCCCCCCCCCC(=O)NCCCC[C@H](NC(=O)[C@H](CC(=O)O)NC(=O)[C@H](CO)NC(=O)[C@@H]1CCCN1C(C)=O)C(=O)N[C@@H](Cc1ccc(O)cc1)C(=O)N[C@H](C(=O)NCC(=O)NCC(=O)N[C@@H](Cc1c[nH]c2ccccc12)C(=O)N[C@@H](Cc1c[nH]c2ccccc12)C(N)=O)[C@@H](C)CC; assay: Substrate activity at recombinant Schistosoma mansoni sirtuin 2 (21 to 322 residues) expressed in Escherichia coli BL21(DE3) cells assessed as Km up to 30 mins by RP-HPLC analysis; format: ADME
[16] = substrate: NC(=O)c1ccc[n+]([C@H]2O[C@@H](COP(=O)([O-])OP(=O)(O)OC[C@H]3O[C@@H](n4cnc5c(N)ncnc54)[C@H](O)[C@@H]3O)[C@H](O)[C@@H]2O)c1; assay: Substrate activity at recombinant Schistosoma mansoni sirtuin 2 (21 to 322 residues) expressed in Escherichia coli BL21(DE3) cells assessed as Km up to 30 mins in presence of PSDKac at saturating concentration by RP-HPLC analysis; format: ADME
[17] = substrate: CC(=O)N[C@@H](CCCCN)C(=O)Nc1ccc2c(C)cc(=O)oc2c1; assay: (§1) Substrate activity at recombinant Schistosoma mansoni sirtuin 2 (21 to 322 residues) expressed in Escherichia coli BL21(DE3) cells assessed as Km up to 30 mins by homogeneous fluorescence based analysis; format: ADME
[18] = substrate: CCCCCCCCCCCCCCCC(=O)NCCCC[C@H](NC(=O)OCc1ccccc1)C(=O)Nc1ccc2c(C)cc(=O)oc2c1; assay: as §1; format: ADME
[19] = substrate: NC(=O)c1ccc[n+]([C@H]2O[C@@H](COP(=O)([O-])OP(=O)(O)OC[C@H]3O[C@@H](n4cnc5c(N)ncnc54)[C@H](O)[C@@H]3O)[C@H](O)[C@@H]2O)c1; assay: Substrate activity at recombinant Schistosoma mansoni sirtuin 2 (21 to 322 residues) expressed in Escherichia coli BL21(DE3) cells assessed as Km up to 30 mins in presence of ZMAL at saturated substrate concentration by homogeneous fluorescence based analysis; format: ADME
[20] = substrate: NC(=O)c1ccc[n+]([C@H]2O[C@@H](COP(=O)([O-])OP(=O)(O)OC[C@H]3O[C@@H](n4cnc5c(N)ncnc54)[C@H](O)[C@@H]3O)[C@H](O)[C@@H]2O)c1; assay: Substrate activity at recombinant Schistosoma mansoni sirtuin 2 (21 to 322 residues) expressed in Escherichia coli BL21(DE3) cells assessed as Km up to 30 mins in presence of PSDKmyr at saturating concentration by RP-HPLC analysis; format: ADME
[21] = substrate: NC(=O)c1ccc[n+]([C@H]2O[C@@H](COP(=O)([O-])OP(=O)(O)OC[C@H]3O[C@@H](n4cnc5c(N)ncnc54)[C@H](O)[C@@H]3O)[C@H](O)[C@@H]2O)c1; assay: Substrate activity at recombinant Schistosoma mansoni sirtuin 2 (21 to 322 residues) expressed in Escherichia coli BL21(DE3) cells assessed as Km up to 30 mins in presence of ZMML at saturated concentration by homogeneous fluorescence based analysis; format: ADME

- Kcat/Km [1]: 9.4 ×10¹ /s/M
- Ratio [2]: 3
Molecule: NC(=O)c1ccc[n+]([C@H]2O[C@@H](COP(=O)([O-])OP(=O)(O)OC[C@H]3O[C@@H](n4cnc5c(N)ncnc54)[C@H](O)[C@@H]3O)[C@H](O)[C@@H]2O)c1

Molecule: NC(=O)c1cccnc1 [NIACINAMIDE]
- IC50 [3]: 23.1 µM
- IC50 [4]: 420 µM
- inhibition at 20 µM [5]: 8.7%
- inhibition at 500 µM [6]: 100%
- inhibition [7]: Active
- inhibition [8]: Active
- inhibition [9]: Active
- inhibition [10]: Active
- inhibition [11]: inactive
- inhibition [12]: inactive
- inhibition [13]: inactive
- inhibition [14]: inactive

B1: NAD-dependent protein deacetylase (Schistosoma mansoni) (protein)
chain: MSFDFLGIKKALFGDNTPRPELKSLNIEGVAQLIQDGQVNKIITMVGAGVSTAAGIPDFRSPSSGIYDNLEDFNLPTPNAIFTIDYFRRDPRPFFEIARRLYRPEAKPTLAHCFIRLLHDKGLLLRHYTQNVDSLERLSGLPEEKLVEAHGTFHTGHCIKCNKQHDFEFMLNEILAKRVPQCLKCRNVVKPDVVLFGESMPKKFFKNLSSDLNNCDLLIIMGTSLTVLPFCAMIHRVGNDVPRLYINREYNDGSTESGLSSFIMRFMVAGFKQNYMKWGRSDNKRDIFWSGNADDGVVKISELLGWKDDLLRLKKETDSRLNEEFLAKKSQDKTNGQ
- Km [15]: 15.1 µM
- kcat [15]: 0.00563 s⁻¹
- kcat/Km [15]: 370 M⁻¹ s⁻¹
- Km [16]: 33.9 µM
- kcat [16]: 0.00172 s⁻¹
- kcat/Km [16]: 51 M⁻¹ s⁻¹
- Km [17]: 59 µM
- Km [18]: 37.5 µM
- Km [19]: 75.8 µM
- kcat [19]: 0.000119 s⁻¹
- Km [20]: 13.3 µM
- kcat [20]: 0.00538 s⁻¹
- kcat/Km [20]: 410 M⁻¹ s⁻¹
- Km [21]: 9.3 µM
